The source of these data is patent publication US20240065302A1, “SWEETENER COMPOSITIONS COMPRISING MOGROSIDES AND USES THEREOF” (Firmenich Incorporated, priority 2021, published 2024).

Format in all cases: in vivo, human
The nature of assay [1]: Expert panelists' comparison of mogrosides with stevia. As to conditions: with respect to Examples 4 and 5 (so in the source). The protocol: (§1) A panel of flavorists at three locations evaluated lemon-lime beverage various mogrosides at a concentration of 600 ppm mogrosides for in-mouth attributes (peak sweetness, upfront sweetness, bitterness, and mouthfeel/thickness) and aftertaste attributes (sweet tastle linger), on a 0 to 10 scale. The in-mouth attributes were evaluated while holding the sample in the mouth, while the aftertaste attributes were evaluated after expectoration.
(§2) A panel of flavorists at three locations evaluated vanilla milk containing various mogrosides at a concentration of 400 ppm mogrosides for in-mouth attributes (peak sweetness, upfront sweetness, bitterness, and mouthfeel/thickness) and aftertaste attributes (sweet tastle linger), on a 0 to 10 scale. The in-mouth attributes were evaluated while holding the sample in the mouth, while the aftertaste attributes were evaluated after expectoration. The data was analyzed using Duncan's new multiple range test and the scores are provided in the data below in parentheses.

Assay [2] in a line: Additional sensory testing for vanilla milk (panel of flavorists). Conditions: 400 ppm mogrosides, in-mouth, 0 to 10 scale. How it is done:
as §2

Assay [3] can be described thus: Sensory testing for apple drink (panel of volunteers). Conditions: for Bitterness / Delayed Sweetness / Global Flavor Intensity / Sweetness / Thickness/Body: in-mouth, normalized to Reb M. The protocol: (§3) A panel of volunteers evaluated siratose for in-mouth attributes (sweetness, delayed sweetness, sourness, bitterness, global flavor intensity, thickness/body, and astringence) and aftertaste (AT) attributes (lingering sweetness, overall off-taste intensity, licorice off-tast, bitterness off-taste, and mouth coating) on a 10-point scale. Two replicate session were conducted, with a 20 minute break between sessions. There was a 90 second delay between samples within a session. Panelists evaluated all samples in a first session and evaluated the samples again a second time in a second session. Control samples of Rebaudioside M (Reb M) were evaluated during all sessions as a control. Mogroside V was also evaluated and sensory data for mogroside V is provided.
(§4) Data analysis was performed using 2-way analysis of variance (ANOVA) with interaction using Tukey's HSD test. The data was normalized for each attribute according to average scores for Reb M.

Assay [4] is described as follows: Sensory testing for lemon-lime carbonated soft drink (panel of volunteers). The protocol:
as §3, §4
A panel of volunteers evaluated the siratose-containing lemon-lime carbonated soft drink for in-mouth attributes and aftertaste attributes according to the methods described in Example 1 above.

A short description of assay [5]: Sensory testing for sparkling orange beverage (panel of volunteers). How it is done: as §3, §4
A panel of volunteers evaluated a sparkling orange beverage containing siratose for in-mouth attributes and aftertaste attibutes according to the methods described in Example 1 above.

The nature of assay [6]: Sensory testing for vanilla milk (panel of volunteers). As to conditions: for Licorice Aftertaste / Lingering Sweetness / Mouth Coating / Overall Off-Taste: aftertaste. The protocol:
as §3, §4
A panel of volunteers evaluated vanilla milk containing siratose for in-mouth attributes and aftertaste attributes according to the methods described in Example 1 above.

Assay [7] is described as follows: Additional sensory testing for lemon-flavored (lemon-lime) beverage (panel of flavorists). As to conditions: 600 ppm mogrosides, in-mouth, 0 to 10 scale. How it is done:
as §1

The mark [8] stands for this setting: 250 ppm, aftertaste, 10-point scale.
[9] abbreviates: 500 ppm, aftertaste, 10-point scale.
[10] abbreviates: 600 ppm, aftertaste, 10-point scale, normalized.
The mark [11] stands for this setting: 600 ppm, in-mouth, 10-point scale, normalized.
Where [12] appears, read: 250 ppm, aftertaste, 10-point scale, normalized.
Setting [13] is: 250 ppm, in-mouth, 10-point scale, normalized.
Where [14] appears, read: 200 ppm, 10-point scale, normalized.
Where [15] appears, read: 200 ppm, in-mouth, 10-point scale, normalized.
Setting [16] is: 400 ppm, 10-point scale, normalized.
Setting [17] is: 400 ppm, in-mouth, 10-point scale, normalized.

Turning to `C[C@H](CC[C@@H](O[C@@H]1O[C@H](CO[C@@H]2O[C@H](CO)[C@@H](O)[C@H](O)[C@H]2O)[C@@H](O)[C@H](O)[C@H]1O[C@@H]1O[C@H](CO)[C@@H](O)[C@H](O)[C@H]1O)C(C)(C)O)[C@H]1CC[C@@]2(C)[C@@H]3CC=C4[C@@H](CC[C@H](O[C@@H]5O[C@H](CO)[C@@H](O[C@@H]6O[C@H](CO)[C@@H](O)[C@H](O)[C@H]6O)[C@H](O)[C@H]5O)C4(C)C)[C@]3(C)[C@H](O)C[C@]12C` [Isomogroside V], the “Aftertaste and mouthfeel compared with stevia (in words)” value in assay [1] is “lower licorice aftertaste and lower bitter aftertaste as compared with stevia while having a better mouthfeel”.

In assay [2], Isomogroside IVE showed a Bitterness of 1.313. In assay [1], the “Aftertaste and mouthfeel compared with stevia (in words)” value was “lower licorice aftertaste and lower bitter aftertaste as compared with stevia while having a better mouthfeel”.

For `C[C@H](CC[C@@H](O[C@@H]1O[C@H](CO[C@H]2O[C@H](CO)[C@@H](O)[C@H](O)[C@H]2O)[C@@H](O)[C@H](O)[C@H]1O[C@@H]1O[C@H](CO)[C@@H](O)[C@H](O)[C@H]1O)C(C)(C)O)[C@H]1CC[C@@]2(C)[C@]3(C)CC=C4[C@@H](CC[C@H](O[C@@H]5O[C@H](CO)[C@@H](O)[C@H](O)[C@H]5O)C4(C)C)[C@]3(C)[C@H](O)C[C@]12C` [siratose], the “Sensory profile compared with mogroside V (in words)” value in assay [3] was “sweeter, less bitter, and have a higher global flavor intensity than mogroside V, while having a lower overall off taste, licorice aftertaste, and bitterness aftertaste”. In addition, in assay [3] (setting [8]), the “Bitterness Aftertaste” value worked out at 1.1, the “Licorice Aftertaste” value is given as 1.8, the “Lingering Sweetness” value amounted to 3.4 and the “Overall Off-Taste” value was 2.8. In assay [3] (250 ppm, 10-point scale), the Bitterness came out at 1.5, the “Delayed Sweetness” value came to 2.2, the “Global Flavor Intensity” value is recorded as 3.7 and the Sweetness was 4.2. In assay [3] (250 ppm, 10-point scale), the Thickness/Body is given as 1.5. In addition, in assay [3] (setting [9]), the “Licorice Aftertaste” value stood at 2.8, the “Lingering Sweetness” value is 5.2, the “Mouth Coating” value was 2.6 and the “Overall Off-Taste” value is 4.0. Also, in assay [3] (500 ppm, 10-point scale), the Bitterness came to 1.7, the “Delayed Sweetness” value worked out at 3.4, the “Global Flavor Intensity” value came out at 4.6 and the Sweetness was determined as 5.9. The molecule further came in with a Thickness/Body in assay [3] (500 ppm, 10-point scale) of 1.8. The “Sensory profile compared with control Reb M (in words)” value in assay [3] (same concentration) was “high sweetness score and similar in-mouth and aftertaste attributes as the control Reb M samples”. In addition, the “Sensory profile compared with mogroside V (in words)” value in assay [4] is “higher sweetness and global flavor intensity as compared to mogroside V while having a similar aftertaste profile”. In assay [4] (setting [10]), the “Bitterness Aftertaste” value was determined as 1.3, the “Licorice Aftertaste” value stood at 2.3, the “Lingering Sweetness” value came out at 4.3 and the “Overall Off-Taste” value is 3.9. Further, in assay [4] (setting [11]), the Bitterness worked out at 2.1, the “Delayed Sweetness” value is recorded as 3.9, the “Global Flavor Intensity” value is listed as 4.5 and the Sweetness stood at 6.0. For the same molecule, the “Sensory profile compared with control Reb M (in words)” value in assay [4] (same concentration) was “high sweetness score and similar in-mouth and aftertaste attributes as the control Reb M samples”. For the same molecule, in assay [5], the “Off-taste and mouth coating compared with Reb M (in words)” value was “slightly lower off-taste and higher mouth coating than Reb M”; the “Sweetness compared with mogroside V (in words)” value is on record as “greater sweetness than mogroside V”. Moreover, in assay [5] (setting [12]), the “Licorice Aftertaste” value worked out at 2.9, the “Lingering Sweetness” value is listed as 4.4, the “Mouth Coating” value came out at 3.0 and the “Overall Off-Taste” value is 3.1. In assay [5] (setting [13]), the “Delayed Sweetness” value worked out at 4.1 and the Sweetness was 5.8. Besides, in assay [5] (same concentration), the “Sweetness and delayed sweetness compared with control Reb M (in words)” value is “high sweetness score and an increased delayed sweetness compared to the control Reb M samples”. In addition, in assay [6] (200 ppm and 400 ppm), the “Sensory profile compared with Reb M (in words)” value is “improved sweetness as comparted to Reb M”; the “Sensory profile compared with mogroside V (in words)” value was “sweeter than mogroside V at both 200 ppm and 400 ppm, while having a similar aftertaste profile”. In addition, in assay [6] (setting [14]), the “Licorice Aftertaste” value was 1.0, the “Lingering Sweetness” value was found to be 3.1, the “Mouth Coating” value stood at 3.2 and the “Overall Off-Taste” value is recorded as 1.9. Moreover, in assay [6] (setting [15]), the Astringence is 0.5, the “Delayed Sweetness” value is 1.7, the Fattiness is 3.1 and the Sourness was found to be 0.5. Further, in assay [6] (setting [15]), the Sweetness came to 5.6. For the same molecule, in assay [6] (setting [16]), the “Licorice Aftertaste” value was found to be 1.1, the “Lingering Sweetness” value stood at 4.0, the “Mouth Coating” value turned out to be 0.8 and the “Overall Off-Taste” value is 2.4. In assay [6] (setting [17]), the Astringence is 0.5, the Bitterness amounted to 0.6, the “Delayed Sweetness” value came out at 2.3 and the Fattiness was 3.6. Also, in assay [6] (setting [17]), the “Global Flavor Intensity” value amounted to 5.1, the Sourness turned out to be 0.5 and the Sweetness was 7.1. Moreover, the “Aftertaste and mouthfeel compared with stevia (in words)” value in assay [1] was “lower licorice aftertaste and lower bitter aftertaste as compared with stevia while having a better mouthfeel”.

Turning to `C[C@H](CC[C@@H](O[C@@H]1O[C@H](CO[C@@H]2O[C@H](CO)[C@@H](O)[C@H](O)[C@H]2O)[C@@H](O)[C@H](O)[C@H]1O[C@@H]1O[C@H](CO)[C@@H](O)[C@H](O)[C@H]1O)C(C)(C)O)[C@H]1CC[C@@]2(C)[C@@H]3CC=C4[C@@H](CC[C@H](O[C@@H]5O[C@H](CO)[C@@H](O)[C@H](O)[C@H]5O)C4(C)C)[C@]3(C)[C@H](O)C[C@]12C` [Siamenoside I], the “Peak Sweetness” value is 6.571 (b)_ in assay [7] and 7.375 (a)_ in assay [2]. In addition, the “Aftertaste and mouthfeel compared with stevia (in words)” value in assay [1] is “lower licorice aftertaste and lower bitter aftertaste as compared with stevia while having a better mouthfeel”.
